Measured values reported in patent US20250360148A1, “SOLID DISPERSIONS OF PSILOCYBIN” (Cybin IRL Limited, priority 2022, published 2025).
Marks after values point to notes of the source that are not given here.

Columns and labels:
[1] = cited from earlier work
[2] = XRPD characterization of freeze-dried solid dispersions, physical mixtures and starting material; type: physicochemical; details: as prepared; solid form of psilocybin (PY) in freeze-dried dispersion, physical mixture or starting material
Experimental: The samples were prepared in silicon low background holders using light manual pressure to keep the sample surface flat and level with the reference surface of the sample holder. The single crystal Si low background holder has a circular recess (10 mm diameter and about 0.2 mm depth) that holds the sample.
The Rigaku Smart-Lab diffraction system used was configured for Bragg-Brentano reflection geometry using a line source X-ray beam. The Bragg-Brentano geometry was controlled by passive divergence and receiving slits with the sample itself acting as the focusing component for the optics. The figures were created using PlotMon V2.1.1.0.
High-resolution XRPD analysis was performed using Rigaku Smart-Lab diffraction system configured for Debye-Scherrer transmission geometry. The Debye-Scherrer convergent beam geometry utilizes a curved x-ray mirror to focus the incident beam through the sample and onto the detector plane. The axial divergence of the X-ray beam was controlled by 5.0° Soller slits in both the incident and diffracted beam paths.
Freeze-dried solid dispersions of Examples 1-5, and corresponding Reference Examples, were characterized using X-ray powder diffraction (XRPD).

[3] = Characterization and 40° C. closed-vial stability of spray dried solid dispersions (XRPD, mDSC, TGA); type: physicochemical; details: t = 0, spray dried
Experimental: X-ray power diffraction (XRPD): XRPD patterns were collected on a Bruker AXS D2 diffractometer using Cu Kα radiation (30 kV, 10 mA), […], using a LynxEye detector from 5-42 °2θ.
The details of the data collection are: • Angular range: 5 to 42 °2θ • Step size: 0.024° 2θ • Collection time: 0.1 seconds per step.
Samples were run under ambient conditions and prepared as flat plate specimens using powder without grinding. Approximately 1-2 mg of the sample was lightly pressed on a silicon wafer to obtain a flat surface.
Modulated differential scanning calorimetry (mDSC): TOPEM® is a temperature modulated DSC method which differs from conventional DSC in allowing the total heat flow to be separated into reversing and non-reversing heat flow components. Such techniques help distinguish between processes or transitions that overlap or lie very close to one another. The glass transition temperature (Tg) was determined from the reversible heatflow component.
TOPEM® DSC data were collected on a Mettler DSC 3+ equipped with a 34 position auto-sampler. The instrument was calibrated for energy and temperature using certified indium. Typically, 3-5 mg of each sample, in a pin-holed aluminium pan, was heated at 2 K·min^−1 from 30° C. to 220° C. with a pulse height of 0.64 K and a pulse width 15-30 sec. A nitrogen purge at 50 mL·min^−1 was maintained over the sample. […]

For `CN(C)CCc1c[nH]c2cccc(OP(=O)(O)O)c12` [amorphous psilocybin], the “Tg (midpoint)” value ([1]; reported by Greenan et al.) is given as 163 °C and the “physical stability of the amorphous form without polymer” value ([1]; variety of stress conditions, Greenan et al.) is given as “known to crystallize”.
In the case of `CN(C)CCc1c[nH]c2cccc(OP(=O)(O)O)c12` [Crystalline PY starting material, 3-(2-(dimethylamino)ethyl)-1H-indol-4-yl dihydrogen phosphate], the “XRPD Results” value [2] is reported as “crystalline PY (methanol solvate)^a”.
For `CN(C)CCc1c[nH]c2cccc(OP(=O)(O)O)c12` [Psilocybin (PY), 3-(2-(dimethylamino)ethyl)-1H-indol-4-yl dihydrogen phosphate], the XRPD [3] was “Amorphous” and the Tg ([3]; mDSC) was 161 °C.
